Some targets named below: Histamine H1 receptor (Homo sapiens, UniProt P35367); Melanocortin receptor 3 (Homo sapiens, UniProt P41968); Melanocortin receptor 4 (Homo sapiens, UniProt P32245); Mu-type opioid receptor (Homo sapiens, UniProt P35372); D(3) dopamine receptor (Homo sapiens, UniProt P35462).
Assay [1] addresses T1, Type-1 angiotensin II receptor (Homo sapiens, UniProt P30556).
T1 sequence (P30556 whole entry): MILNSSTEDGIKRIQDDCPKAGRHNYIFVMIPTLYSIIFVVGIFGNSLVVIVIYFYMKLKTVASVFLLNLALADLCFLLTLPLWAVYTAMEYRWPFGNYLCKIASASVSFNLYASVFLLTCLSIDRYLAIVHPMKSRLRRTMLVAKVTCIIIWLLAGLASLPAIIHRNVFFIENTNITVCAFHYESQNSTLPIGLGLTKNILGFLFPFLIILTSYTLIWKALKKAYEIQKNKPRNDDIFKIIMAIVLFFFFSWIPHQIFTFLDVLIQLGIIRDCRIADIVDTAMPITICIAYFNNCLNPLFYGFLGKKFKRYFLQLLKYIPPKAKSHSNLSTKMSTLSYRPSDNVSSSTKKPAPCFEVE

Assay [2] has as its target T2, Muscarinic acetylcholine receptor M2 (Homo sapiens, UniProt P08172).
T2 sequence (P08172 whole entry): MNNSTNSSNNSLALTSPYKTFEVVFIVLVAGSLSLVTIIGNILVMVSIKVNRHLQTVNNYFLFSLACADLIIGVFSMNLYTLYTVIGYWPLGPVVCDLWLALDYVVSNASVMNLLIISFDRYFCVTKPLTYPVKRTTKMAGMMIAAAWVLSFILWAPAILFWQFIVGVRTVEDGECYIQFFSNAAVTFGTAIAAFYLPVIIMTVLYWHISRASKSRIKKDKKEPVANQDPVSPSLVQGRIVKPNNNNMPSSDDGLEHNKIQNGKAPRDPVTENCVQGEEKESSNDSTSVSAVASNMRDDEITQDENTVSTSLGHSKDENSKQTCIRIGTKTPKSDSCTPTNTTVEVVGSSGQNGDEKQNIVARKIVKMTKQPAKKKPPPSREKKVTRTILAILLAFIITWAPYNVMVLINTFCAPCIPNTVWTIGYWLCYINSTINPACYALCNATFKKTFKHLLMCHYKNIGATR
It counts as functional, cell-based.

In assay [3] the target is T3, Cannabinoid receptor 1 (Homo sapiens, UniProt P21554).
T3 sequence (P21554 whole entry): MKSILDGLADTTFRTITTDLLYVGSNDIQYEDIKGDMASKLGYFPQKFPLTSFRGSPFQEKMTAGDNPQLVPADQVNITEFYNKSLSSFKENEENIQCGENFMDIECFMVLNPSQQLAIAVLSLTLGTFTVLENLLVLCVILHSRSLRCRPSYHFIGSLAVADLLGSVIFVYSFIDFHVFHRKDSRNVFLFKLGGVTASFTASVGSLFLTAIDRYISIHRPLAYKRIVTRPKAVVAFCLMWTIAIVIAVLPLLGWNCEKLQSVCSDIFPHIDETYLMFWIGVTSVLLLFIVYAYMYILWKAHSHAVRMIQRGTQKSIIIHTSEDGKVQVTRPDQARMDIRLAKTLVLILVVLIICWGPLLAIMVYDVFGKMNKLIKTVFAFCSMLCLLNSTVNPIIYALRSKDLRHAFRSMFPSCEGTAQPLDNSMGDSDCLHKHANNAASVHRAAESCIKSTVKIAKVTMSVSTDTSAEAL
A further assay deals with D(1A) dopamine receptor (Homo sapiens, UniProt P21728). Format: functional, cell-based.
Chain of D(1A) dopamine receptor (P21728 whole entry): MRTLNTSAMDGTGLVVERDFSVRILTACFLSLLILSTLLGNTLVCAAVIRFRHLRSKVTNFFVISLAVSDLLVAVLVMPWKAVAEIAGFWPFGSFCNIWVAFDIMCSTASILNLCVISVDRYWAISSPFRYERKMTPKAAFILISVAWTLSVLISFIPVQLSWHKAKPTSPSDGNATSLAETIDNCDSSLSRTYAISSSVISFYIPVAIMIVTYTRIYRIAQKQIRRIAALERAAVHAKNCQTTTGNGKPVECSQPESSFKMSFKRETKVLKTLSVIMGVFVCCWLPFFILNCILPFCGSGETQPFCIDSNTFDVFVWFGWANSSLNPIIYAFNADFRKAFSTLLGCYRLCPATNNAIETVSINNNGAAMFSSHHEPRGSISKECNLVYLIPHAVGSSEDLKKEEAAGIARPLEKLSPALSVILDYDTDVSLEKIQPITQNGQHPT
In assay [4] the target is 5-hydroxytryptamine receptor 2A (Homo sapiens, UniProt P28223). It counts as functional, cell-based.
Chain of 5-hydroxytryptamine receptor 2A (P28223 whole entry): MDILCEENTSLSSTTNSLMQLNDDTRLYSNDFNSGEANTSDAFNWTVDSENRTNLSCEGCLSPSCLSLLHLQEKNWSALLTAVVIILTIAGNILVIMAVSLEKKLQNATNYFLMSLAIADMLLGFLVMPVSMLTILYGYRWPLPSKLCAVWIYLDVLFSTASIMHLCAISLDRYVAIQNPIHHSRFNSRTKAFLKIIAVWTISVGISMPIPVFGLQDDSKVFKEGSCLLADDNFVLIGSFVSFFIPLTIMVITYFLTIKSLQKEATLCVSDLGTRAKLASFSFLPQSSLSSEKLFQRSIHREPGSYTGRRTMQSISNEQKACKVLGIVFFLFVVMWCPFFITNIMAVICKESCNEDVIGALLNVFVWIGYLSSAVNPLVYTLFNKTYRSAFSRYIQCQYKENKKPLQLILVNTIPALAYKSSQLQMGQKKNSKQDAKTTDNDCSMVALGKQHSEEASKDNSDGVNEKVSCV
Assay [5] has as its target Voltage-gated inwardly rectifying potassium channel KCNH2 (Homo sapiens, UniProt Q12809). Format: functional. Particulars: read-out: AC50.
For another assay, the target named is T4, Glucocorticoid receptor (Homo sapiens, UniProt P04150).
T4 sequence (P04150 whole entry): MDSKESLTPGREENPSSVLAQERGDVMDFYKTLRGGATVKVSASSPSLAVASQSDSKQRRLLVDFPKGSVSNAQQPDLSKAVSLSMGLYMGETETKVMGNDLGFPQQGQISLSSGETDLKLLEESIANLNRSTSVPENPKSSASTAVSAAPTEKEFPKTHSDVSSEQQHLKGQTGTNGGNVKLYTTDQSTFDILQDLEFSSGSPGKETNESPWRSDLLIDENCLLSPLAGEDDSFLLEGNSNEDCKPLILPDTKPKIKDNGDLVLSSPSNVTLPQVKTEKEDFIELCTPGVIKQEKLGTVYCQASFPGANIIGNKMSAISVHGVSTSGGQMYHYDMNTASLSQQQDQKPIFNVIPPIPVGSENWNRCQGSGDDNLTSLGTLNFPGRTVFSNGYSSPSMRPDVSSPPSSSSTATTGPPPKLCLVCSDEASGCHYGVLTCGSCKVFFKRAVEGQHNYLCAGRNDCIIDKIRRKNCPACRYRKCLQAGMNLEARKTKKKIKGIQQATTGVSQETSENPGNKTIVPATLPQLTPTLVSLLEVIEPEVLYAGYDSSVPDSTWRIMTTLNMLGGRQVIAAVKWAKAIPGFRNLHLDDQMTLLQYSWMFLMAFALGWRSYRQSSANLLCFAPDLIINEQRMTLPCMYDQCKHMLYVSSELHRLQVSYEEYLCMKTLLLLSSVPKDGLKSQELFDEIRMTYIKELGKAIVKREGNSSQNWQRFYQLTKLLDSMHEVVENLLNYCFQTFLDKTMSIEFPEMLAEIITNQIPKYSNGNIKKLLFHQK

Assay [6] deals with 3',5'-cyclic-AMP phosphodiesterase 4D (Homo sapiens, UniProt Q08499). It counts as functional.
Chain of 3',5'-cyclic-AMP phosphodiesterase 4D (Q08499 whole entry): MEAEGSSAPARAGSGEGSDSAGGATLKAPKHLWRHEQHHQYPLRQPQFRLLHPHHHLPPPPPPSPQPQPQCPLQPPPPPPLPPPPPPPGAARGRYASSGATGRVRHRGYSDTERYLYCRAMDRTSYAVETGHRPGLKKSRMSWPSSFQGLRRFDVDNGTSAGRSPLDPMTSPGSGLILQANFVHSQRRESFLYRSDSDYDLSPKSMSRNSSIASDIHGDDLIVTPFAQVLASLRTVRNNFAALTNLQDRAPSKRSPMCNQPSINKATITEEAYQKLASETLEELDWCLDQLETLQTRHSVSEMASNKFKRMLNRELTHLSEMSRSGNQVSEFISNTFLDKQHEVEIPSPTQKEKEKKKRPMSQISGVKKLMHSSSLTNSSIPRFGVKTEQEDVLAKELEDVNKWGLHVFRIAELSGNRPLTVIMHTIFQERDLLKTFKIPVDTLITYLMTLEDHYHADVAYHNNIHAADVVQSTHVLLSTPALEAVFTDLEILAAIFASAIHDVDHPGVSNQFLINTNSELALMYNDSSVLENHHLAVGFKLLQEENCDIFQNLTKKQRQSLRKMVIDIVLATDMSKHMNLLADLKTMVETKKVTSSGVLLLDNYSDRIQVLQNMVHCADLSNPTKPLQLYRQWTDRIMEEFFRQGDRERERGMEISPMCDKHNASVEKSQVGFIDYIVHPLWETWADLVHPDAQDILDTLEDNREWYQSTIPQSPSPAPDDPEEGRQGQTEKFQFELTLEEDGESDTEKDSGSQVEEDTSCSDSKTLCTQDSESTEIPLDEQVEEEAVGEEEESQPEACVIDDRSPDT
Assay [7] addresses T3, Cannabinoid receptor 1. It counts as functional, cell-based.
For a further assay, the target named is T5, Endothelin-1 receptor (Homo sapiens, UniProt P25101).
T5 sequence (P25101 whole entry): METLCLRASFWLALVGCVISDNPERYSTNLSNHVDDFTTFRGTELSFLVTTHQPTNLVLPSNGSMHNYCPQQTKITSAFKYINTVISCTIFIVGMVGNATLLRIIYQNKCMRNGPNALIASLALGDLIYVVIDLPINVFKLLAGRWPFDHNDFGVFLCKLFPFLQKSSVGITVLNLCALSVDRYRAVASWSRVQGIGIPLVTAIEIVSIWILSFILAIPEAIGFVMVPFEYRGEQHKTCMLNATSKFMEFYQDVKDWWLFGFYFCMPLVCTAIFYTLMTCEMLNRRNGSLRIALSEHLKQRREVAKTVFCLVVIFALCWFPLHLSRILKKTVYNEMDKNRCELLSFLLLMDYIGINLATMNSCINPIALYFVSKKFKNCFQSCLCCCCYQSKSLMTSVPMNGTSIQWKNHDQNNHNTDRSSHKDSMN

Each structure is given as a SMILES string.

This passage reports AC50 results from ChEMBL document CHEMBL5291721, “A preclinical secondary pharmacology resource illuminates target-adverse drug reaction associations of marketed drugs” (Nat Commun, 2023).

In general, AC50 refers to the concentration giving half of the maximal activity seen.
Note: assay procedure not described here.

Chain of Melanocortin receptor 3 (P41968 whole entry): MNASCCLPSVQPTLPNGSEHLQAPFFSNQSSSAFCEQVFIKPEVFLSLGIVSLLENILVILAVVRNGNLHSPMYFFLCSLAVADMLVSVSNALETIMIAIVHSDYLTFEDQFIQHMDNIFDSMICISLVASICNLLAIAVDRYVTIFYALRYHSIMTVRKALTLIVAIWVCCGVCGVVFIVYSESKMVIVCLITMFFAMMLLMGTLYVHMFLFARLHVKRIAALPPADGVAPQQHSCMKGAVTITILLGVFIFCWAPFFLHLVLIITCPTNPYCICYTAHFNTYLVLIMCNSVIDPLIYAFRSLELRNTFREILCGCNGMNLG
Chain of Histamine H1 receptor (P35367 whole entry): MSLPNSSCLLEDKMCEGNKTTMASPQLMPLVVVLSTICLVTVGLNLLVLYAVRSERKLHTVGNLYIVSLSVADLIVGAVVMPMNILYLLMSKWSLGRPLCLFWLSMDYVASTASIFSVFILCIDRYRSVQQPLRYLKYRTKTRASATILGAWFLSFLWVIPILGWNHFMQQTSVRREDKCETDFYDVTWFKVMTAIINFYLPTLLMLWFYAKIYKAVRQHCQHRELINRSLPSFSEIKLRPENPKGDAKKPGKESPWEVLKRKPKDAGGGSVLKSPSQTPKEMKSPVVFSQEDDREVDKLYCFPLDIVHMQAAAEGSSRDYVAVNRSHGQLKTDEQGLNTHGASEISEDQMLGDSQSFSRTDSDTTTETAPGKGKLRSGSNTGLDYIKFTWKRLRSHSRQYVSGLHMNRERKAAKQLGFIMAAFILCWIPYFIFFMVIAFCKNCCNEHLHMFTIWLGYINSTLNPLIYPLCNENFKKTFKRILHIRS
Chain of Mu-type opioid receptor (P35372 whole entry): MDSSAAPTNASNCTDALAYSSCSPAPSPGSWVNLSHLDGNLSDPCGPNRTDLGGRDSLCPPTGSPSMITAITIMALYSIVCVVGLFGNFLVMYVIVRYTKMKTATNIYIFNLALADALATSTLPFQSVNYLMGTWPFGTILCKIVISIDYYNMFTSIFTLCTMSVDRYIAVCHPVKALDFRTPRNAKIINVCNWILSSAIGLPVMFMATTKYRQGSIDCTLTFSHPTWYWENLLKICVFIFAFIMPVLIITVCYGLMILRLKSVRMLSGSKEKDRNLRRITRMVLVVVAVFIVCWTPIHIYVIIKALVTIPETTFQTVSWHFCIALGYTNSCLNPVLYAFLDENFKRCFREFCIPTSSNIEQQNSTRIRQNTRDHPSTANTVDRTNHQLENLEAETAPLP
Chain of D(3) dopamine receptor (P35462 whole entry): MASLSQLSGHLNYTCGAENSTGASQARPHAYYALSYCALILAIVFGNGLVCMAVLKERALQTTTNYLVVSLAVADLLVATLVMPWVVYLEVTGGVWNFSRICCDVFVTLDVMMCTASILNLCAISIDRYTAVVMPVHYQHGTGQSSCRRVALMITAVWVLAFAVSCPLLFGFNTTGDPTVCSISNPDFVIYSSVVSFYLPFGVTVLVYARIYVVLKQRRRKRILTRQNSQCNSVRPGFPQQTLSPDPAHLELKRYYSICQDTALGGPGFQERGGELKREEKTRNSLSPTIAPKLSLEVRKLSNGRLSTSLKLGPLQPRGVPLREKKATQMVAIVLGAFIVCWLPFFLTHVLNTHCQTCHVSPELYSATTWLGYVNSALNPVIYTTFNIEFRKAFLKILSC
Chain of Voltage-gated inwardly rectifying potassium channel KCNH2 (Q12809 whole entry): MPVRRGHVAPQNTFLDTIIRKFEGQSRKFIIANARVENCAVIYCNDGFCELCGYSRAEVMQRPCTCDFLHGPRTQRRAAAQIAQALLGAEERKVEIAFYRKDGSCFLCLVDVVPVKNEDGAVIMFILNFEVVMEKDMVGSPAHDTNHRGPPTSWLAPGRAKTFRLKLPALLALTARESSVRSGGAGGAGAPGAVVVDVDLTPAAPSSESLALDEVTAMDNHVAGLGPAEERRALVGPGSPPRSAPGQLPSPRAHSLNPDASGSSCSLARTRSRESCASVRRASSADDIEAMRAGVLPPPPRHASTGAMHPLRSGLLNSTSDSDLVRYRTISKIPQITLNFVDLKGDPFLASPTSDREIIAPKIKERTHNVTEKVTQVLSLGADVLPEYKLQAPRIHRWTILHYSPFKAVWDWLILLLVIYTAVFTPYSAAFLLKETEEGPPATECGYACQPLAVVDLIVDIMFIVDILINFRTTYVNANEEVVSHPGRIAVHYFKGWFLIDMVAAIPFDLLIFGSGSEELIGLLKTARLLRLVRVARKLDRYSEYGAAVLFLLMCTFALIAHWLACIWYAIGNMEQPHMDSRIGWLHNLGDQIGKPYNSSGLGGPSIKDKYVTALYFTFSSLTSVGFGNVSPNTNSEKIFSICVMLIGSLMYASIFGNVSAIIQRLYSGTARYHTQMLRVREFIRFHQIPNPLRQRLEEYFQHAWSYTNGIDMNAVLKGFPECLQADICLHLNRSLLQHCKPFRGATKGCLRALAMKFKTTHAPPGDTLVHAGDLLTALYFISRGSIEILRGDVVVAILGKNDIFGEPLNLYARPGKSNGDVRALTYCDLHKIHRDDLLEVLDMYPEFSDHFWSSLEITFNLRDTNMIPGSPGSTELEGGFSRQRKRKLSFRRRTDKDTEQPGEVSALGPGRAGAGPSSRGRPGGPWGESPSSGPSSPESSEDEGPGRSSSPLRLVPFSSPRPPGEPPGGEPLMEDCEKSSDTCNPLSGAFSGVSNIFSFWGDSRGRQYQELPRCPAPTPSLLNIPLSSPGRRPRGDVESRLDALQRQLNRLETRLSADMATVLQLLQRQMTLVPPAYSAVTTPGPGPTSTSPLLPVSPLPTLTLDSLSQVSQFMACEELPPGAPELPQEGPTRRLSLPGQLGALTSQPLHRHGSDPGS

As for `O=C(CCCCC(=O)Nc1c(I)cc(I)c(C(=O)O)c1I)Nc1c(I)cc(I)c(C(=O)O)c1I` [IODIPAMIDE], the AC50 in assay [1] is greater than 10 µM; in assay [2] it was greater than 10 µM; at Cannabinoid receptor 1 [3] it was greater than 10 µM; on D(1A) dopamine receptor, greater than 30 µM; at Histamine H1 receptor, greater than 10 µM; in assay [4] it was greater than 10 µM. The AC50 was greater than 30 µM in assay [5]; greater than 10 µM at Melanocortin receptor 3; greater than 10 µM at Melanocortin receptor 4; greater than 10 µM at Glucocorticoid receptor; greater than 30 µM in assay [6]; greater than 30 µM at Mu-type opioid receptor. Also, the concentration at half-maximal activity (AC50) at D(3) dopamine receptor is greater than 30 µM.
For the compound `CN1C(=O)CC(=O)N(c2ccccc2)c2cc(Cl)ccc21` [CLOBAZAM], the AC50 (in [1]; in assay [2]; at Cannabinoid receptor 1 [3]; at D(1A) dopamine receptor; at Histamine H1 receptor; in [4]) was greater than 10 µM each time. Besides, the AC50 in assay [5] was greater than 30 µM; at Melanocortin receptor 3, greater than 10 µM; on Melanocortin receptor 4, greater than 10 µM; at Glucocorticoid receptor it was greater than 10 µM; in assay [6], 10 µM; at Mu-type opioid receptor, greater than 30 µM. This compound registered an AC50 at D(3) dopamine receptor greater than 30 µM.
Take `CN[C@@H]1[C@H](O)[C@H](NC)[C@H]2O[C@@]3(O)C(=O)C[C@@H](C)O[C@H]3O[C@@H]2[C@H]1O` [SPECTINOMYCIN]: the concentration at half-maximal activity (AC50) in assay [1] is greater than 10 µM; in assay [2], greater than 10 µM; at Cannabinoid receptor 1 [3], greater than 10 µM; at D(1A) dopamine receptor, greater than 10 µM; in assay [5], greater than 30 µM; at Melanocortin receptor 3, greater than 10 µM. For the same compound, the concentration at half-maximal activity (AC50) at Melanocortin receptor 4 is greater than 10 µM; on Glucocorticoid receptor, greater than 10 µM; in [6], greater than 30 µM; at Mu-type opioid receptor, greater than 30 µM; at D(3) dopamine receptor it was greater than 30 µM.
As for `CC(=O)NS(=O)(=O)c1ccc(N)cc1` [SULFACETAMIDE], the half-maximal activity concentration (AC50) (in assay [1]; in [2]; at Cannabinoid receptor 1 [3]; at D(1A) dopamine receptor; on Histamine H1 receptor; in assay [4]) was greater than 10 µM throughout. The half-maximal activity concentration (AC50) in [5] was greater than 30 µM; on Melanocortin receptor 3, greater than 10 µM; on Melanocortin receptor 4, greater than 10 µM; at Glucocorticoid receptor, greater than 10 µM; in assay [6], greater than 30 µM; at Mu-type opioid receptor, greater than 30 µM. Besides, at D(3) dopamine receptor, the AC50 is greater than 30 µM.
Turning to `COc1c(N2CCNC(C)C2)c(F)cc2c(=O)c(C(=O)O)cn(C3CC3)c12` (centres undefined) [GATIFLOXACIN], the half-maximal activity concentration (AC50) is greater than 10 µM in assay [1]; greater than 10 µM in [2]; greater than 10 µM at Cannabinoid receptor 1 [3]; greater than 30 µM at D(1A) dopamine receptor; 24 µM in [5]; greater than 10 µM at Melanocortin receptor 3. The concentration at half-maximal activity (AC50) at Melanocortin receptor 4 is greater than 10 µM; on Glucocorticoid receptor, greater than 10 µM; in assay [6], greater than 30 µM; on Mu-type opioid receptor it was greater than 30 µM; at D(3) dopamine receptor, greater than 30 µM.
Regarding `CN1CCCN=C1COC(=O)C(O)(c1ccccc1)C1CCCCC1` (centres undefined) [OXYPHENCYCLIMINE], the AC50 in assay [1] was greater than 10 µM; in [2], 0.07 µM; at Cannabinoid receptor 1 [3] it was greater than 10 µM; on D(1A) dopamine receptor it was greater than 10 µM; at Histamine H1 receptor, 0.99 µM; in [4] it was greater than 10 µM. Moreover, the half-maximal activity concentration (AC50) in assay [5] was 3.77 µM; at Melanocortin receptor 3, greater than 10 µM; at Melanocortin receptor 4, greater than 10 µM; on Glucocorticoid receptor, greater than 10 µM; in assay [6] it was greater than 30 µM; at Mu-type opioid receptor, greater than 30 µM. Further, at D(3) dopamine receptor, the AC50 is greater than 30 µM.
Take `COc1ccc2cccc(CCNC(C)=O)c2c1` [AGOMELATINE]: the concentration at half-maximal activity (AC50) in assay [1] is greater than 30 µM; in [2], greater than 30 µM; at Cannabinoid receptor 1 [7], greater than 30 µM; on Cannabinoid receptor 1 [3], greater than 10 µM; on D(1A) dopamine receptor, greater than 10 µM; on Endothelin-1 receptor, greater than 30 µM. The AC50 was greater than 10 µM at Histamine H1 receptor; greater than 30 µM in [5]; greater than 30 µM at Melanocortin receptor 3; greater than 30 µM at Melanocortin receptor 4; greater than 30 µM at Glucocorticoid receptor; greater than 30 µM in assay [6]. The AC50 at Mu-type opioid receptor is greater than 30 µM; at D(3) dopamine receptor, greater than 10 µM.
Take `CC(C)C(=O)OCC(=O)[C@@]12O[C@H](C3CCCCC3)O[C@@H]1C[C@H]1[C@@H]3CCC4=CC(=O)C=C[C@]4(C)[C@H]3[C@@H](O)C[C@@]12C` [CICLESONIDE]: the half-maximal activity concentration (AC50) in assay [1] was greater than 10 µM; in assay [2] it was greater than 10 µM; at Cannabinoid receptor 1 [7] it was greater than 30 µM; on Cannabinoid receptor 1 [3], 12.1 µM; on D(1A) dopamine receptor, greater than 10 µM; on Histamine H1 receptor, greater than 10 µM. The concentration at half-maximal activity (AC50) in assay [4] is greater than 10 µM; in assay [5], greater than 30 µM; on Melanocortin receptor 3 it was greater than 10 µM; on Melanocortin receptor 4 it was greater than 10 µM; in [6], greater than 30 µM; on Mu-type opioid receptor it was greater than 30 µM. The compound further gave an AC50 at D(3) dopamine receptor greater than 30 µM.
As for `Cc1c(C(=O)Nc2ccc(N3C[C@@H](C)O[C@@H](C)C3)nc2)cccc1-c1ccc(OC(F)(F)F)cc1` [SONIDEGIB], the concentration at half-maximal activity (AC50) in assay [1] was greater than 30 µM; on Cannabinoid receptor 1 [3], greater than 10 µM; on Endothelin-1 receptor, greater than 30 µM; on Histamine H1 receptor, greater than 10 µM; on Melanocortin receptor 3, greater than 30 µM; on Melanocortin receptor 4 it was greater than 30 µM. In addition, the half-maximal activity concentration (AC50) is greater than 30 µM at Glucocorticoid receptor, greater than 30 µM in assay [6] and greater than 10 µM at Mu-type opioid receptor.
For `CCNC(C)Cc1cccc(C(F)(F)F)c1` (centres undefined) [FENFLURAMINE], the AC50 in [1] was greater than 30 µM; in assay [2], greater than 30 µM; at Cannabinoid receptor 1 [7] it was greater than 30 µM; at Cannabinoid receptor 1 [3] it was greater than 10 µM; at Endothelin-1 receptor, greater than 30 µM; in assay [5], greater than 30 µM. Moreover, the concentration at half-maximal activity (AC50) on Melanocortin receptor 3 was greater than 30 µM; on Melanocortin receptor 4 it was greater than 30 µM; at Glucocorticoid receptor, greater than 30 µM; in assay [6], greater than 30 µM; on Mu-type opioid receptor, greater than 30 µM; on D(3) dopamine receptor it was 8 µM.
As for `C#CCN(C)[C@H](C)Cc1ccccc1` [SELEGILINE], the AC50 is greater than 10 µM in assay [1]; greater than 10 µM in assay [2]; greater than 30 µM at Cannabinoid receptor 1 [7]; greater than 10 µM on Cannabinoid receptor 1 [3]; greater than 10 µM at D(1A) dopamine receptor; greater than 30 µM in assay [5]. For the same compound, the concentration at half-maximal activity (AC50) on Melanocortin receptor 3 is greater than 10 µM; on Melanocortin receptor 4, greater than 10 µM; on Glucocorticoid receptor it was greater than 10 µM; in assay [6] it was greater than 30 µM; on Mu-type opioid receptor, greater than 30 µM; at D(3) dopamine receptor, greater than 30 µM.
